In ChEMBL document CHEMBL4190335, “Design of KDM4 Inhibitors with Antiproliferative Effects in Cancer Models” (ACS Med Chem Lett, 2017):
The source made the active and inactive calls. The calls are words filed in the database; no cut-off is given here.

Tests used:
[1] = target: T1, Lysine-specific demethylase 3A (Homo sapiens, UniProt Q9Y4C1); assay: Inhibition of KDM3A (unknown origin) using biotinylated H3K9me1 peptide and alpha-ketoglutarate as substrate measured after 20 mins by LANCE TR-FRET assay
T1 sequence (Q9Y4C1 whole entry): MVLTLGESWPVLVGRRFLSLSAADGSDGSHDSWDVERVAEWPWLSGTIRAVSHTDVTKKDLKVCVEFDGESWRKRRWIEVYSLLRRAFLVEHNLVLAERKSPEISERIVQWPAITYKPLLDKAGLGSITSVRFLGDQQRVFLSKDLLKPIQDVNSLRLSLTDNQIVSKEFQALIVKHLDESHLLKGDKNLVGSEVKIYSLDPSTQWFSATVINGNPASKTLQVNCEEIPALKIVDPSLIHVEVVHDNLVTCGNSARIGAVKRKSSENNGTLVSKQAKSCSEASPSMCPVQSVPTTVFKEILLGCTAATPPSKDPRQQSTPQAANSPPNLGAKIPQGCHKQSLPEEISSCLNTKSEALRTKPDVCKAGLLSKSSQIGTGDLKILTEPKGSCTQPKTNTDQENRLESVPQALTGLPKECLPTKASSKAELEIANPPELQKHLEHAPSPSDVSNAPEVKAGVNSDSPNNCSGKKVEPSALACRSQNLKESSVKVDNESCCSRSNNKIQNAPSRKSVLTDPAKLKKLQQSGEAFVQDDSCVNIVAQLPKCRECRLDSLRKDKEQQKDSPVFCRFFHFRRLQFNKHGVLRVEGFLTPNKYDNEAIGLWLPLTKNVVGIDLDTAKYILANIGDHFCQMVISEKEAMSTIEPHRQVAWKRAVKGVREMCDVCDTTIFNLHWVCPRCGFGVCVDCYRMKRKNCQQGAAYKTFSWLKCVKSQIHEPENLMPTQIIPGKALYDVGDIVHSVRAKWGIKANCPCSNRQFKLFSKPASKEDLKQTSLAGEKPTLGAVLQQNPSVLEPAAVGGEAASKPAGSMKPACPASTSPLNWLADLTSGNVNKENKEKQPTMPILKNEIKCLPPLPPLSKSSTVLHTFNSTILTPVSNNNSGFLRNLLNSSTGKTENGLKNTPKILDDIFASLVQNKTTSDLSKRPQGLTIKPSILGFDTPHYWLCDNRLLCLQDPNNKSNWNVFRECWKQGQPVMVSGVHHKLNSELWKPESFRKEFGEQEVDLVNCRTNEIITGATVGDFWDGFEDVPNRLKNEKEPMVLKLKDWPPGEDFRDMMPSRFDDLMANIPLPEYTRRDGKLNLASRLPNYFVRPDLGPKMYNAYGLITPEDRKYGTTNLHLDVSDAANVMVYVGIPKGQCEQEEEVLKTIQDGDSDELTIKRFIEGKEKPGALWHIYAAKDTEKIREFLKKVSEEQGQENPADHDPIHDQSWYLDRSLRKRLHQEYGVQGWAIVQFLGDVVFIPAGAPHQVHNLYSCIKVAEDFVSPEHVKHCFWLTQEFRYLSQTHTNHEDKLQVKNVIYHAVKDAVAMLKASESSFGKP

[2] = target: Lysine-specific demethylase 6B (Homo sapiens, UniProt O15054); assay: Inhibition of KDM6B (unknown origin) using biotinylated H3K27me3 peptide and alpha-ketoglutarate as substrate pretreated for 1 hr followed by substrate addition measured after 20 mins by LANCE TR-FRET assay
[3] = target: Lysine-specific demethylase 3B (Homo sapiens, UniProt Q7LBC6); assay: Inhibition of KDM3B (unknown origin) using biotinylated H3K9me1 peptide and alpha-ketoglutarate as substrate measured after 20 mins by LANCE TR-FRET assay
[4] = AUC in CD-1 mouse at 10 mg/kg, po; assay type: ADME, organism-based; details: in vivo
[5] = target: Histone lysine demethylase PHF8 (Homo sapiens, UniProt Q9UPP1); assay: Inhibition of PHF8 (unknown origin) using biotinylated H3K9me1 peptide and alpha-ketoglutarate as substrate measured after 20 mins by LANCE TR-FRET assay
[6] = target: T2, Lysine-specific demethylase 2B (Homo sapiens, UniProt Q8NHM5); assay: Inhibition of KDM2B (unknown origin) using biotinylated H3K36me2 peptide and alpha-ketoglutarate as substrate pretreated for 1 hr followed by substrate addition measured after 20 mins by LANCE TR-FRET assay
T2 sequence (Q8NHM5 whole entry): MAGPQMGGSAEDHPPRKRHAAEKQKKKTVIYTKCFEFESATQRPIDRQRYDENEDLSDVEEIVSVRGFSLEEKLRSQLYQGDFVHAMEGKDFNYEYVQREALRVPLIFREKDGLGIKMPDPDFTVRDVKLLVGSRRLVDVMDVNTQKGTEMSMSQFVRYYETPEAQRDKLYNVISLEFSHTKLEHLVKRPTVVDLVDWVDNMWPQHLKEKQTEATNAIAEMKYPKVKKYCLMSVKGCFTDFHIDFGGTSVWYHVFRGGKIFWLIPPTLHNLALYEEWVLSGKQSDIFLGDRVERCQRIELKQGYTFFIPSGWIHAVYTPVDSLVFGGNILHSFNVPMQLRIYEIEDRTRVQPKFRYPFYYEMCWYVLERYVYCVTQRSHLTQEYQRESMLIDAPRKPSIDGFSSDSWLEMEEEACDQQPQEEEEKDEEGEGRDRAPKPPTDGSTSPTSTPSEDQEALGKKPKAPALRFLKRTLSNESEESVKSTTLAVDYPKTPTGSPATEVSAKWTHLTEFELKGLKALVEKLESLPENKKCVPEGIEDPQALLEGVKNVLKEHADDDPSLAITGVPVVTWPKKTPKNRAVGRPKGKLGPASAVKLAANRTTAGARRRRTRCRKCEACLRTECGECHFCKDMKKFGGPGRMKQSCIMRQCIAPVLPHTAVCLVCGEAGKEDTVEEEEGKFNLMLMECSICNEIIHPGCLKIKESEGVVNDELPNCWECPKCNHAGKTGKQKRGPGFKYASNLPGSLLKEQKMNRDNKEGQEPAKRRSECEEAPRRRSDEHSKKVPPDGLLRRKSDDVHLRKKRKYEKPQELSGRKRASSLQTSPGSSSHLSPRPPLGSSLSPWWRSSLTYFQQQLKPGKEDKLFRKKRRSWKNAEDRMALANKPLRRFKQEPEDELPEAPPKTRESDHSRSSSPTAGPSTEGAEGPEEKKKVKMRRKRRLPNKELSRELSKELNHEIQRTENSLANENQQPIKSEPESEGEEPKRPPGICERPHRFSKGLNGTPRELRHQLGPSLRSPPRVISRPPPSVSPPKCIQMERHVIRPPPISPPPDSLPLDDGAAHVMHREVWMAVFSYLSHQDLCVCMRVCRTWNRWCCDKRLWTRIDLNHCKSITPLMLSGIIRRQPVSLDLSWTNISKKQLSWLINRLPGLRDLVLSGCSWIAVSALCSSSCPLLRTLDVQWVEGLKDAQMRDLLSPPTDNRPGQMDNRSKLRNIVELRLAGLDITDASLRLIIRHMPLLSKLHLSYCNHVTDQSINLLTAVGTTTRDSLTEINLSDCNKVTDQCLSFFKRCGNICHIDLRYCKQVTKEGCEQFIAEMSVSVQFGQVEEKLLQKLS

[7] = target: T3, Lysine-specific demethylase 4C (Homo sapiens, UniProt Q9H3R0); assay: Inhibition of KDM4C (unknown origin) using biotinylated H3K9me3 peptide and alpha-ketoglutarate as substrate pretreated for 1 hr followed by substrate addition measured after 20 mins in presence of 0.02 mg/ml BSA by LANCE TR-FRET assay
T3 sequence (Q9H3R0 whole entry): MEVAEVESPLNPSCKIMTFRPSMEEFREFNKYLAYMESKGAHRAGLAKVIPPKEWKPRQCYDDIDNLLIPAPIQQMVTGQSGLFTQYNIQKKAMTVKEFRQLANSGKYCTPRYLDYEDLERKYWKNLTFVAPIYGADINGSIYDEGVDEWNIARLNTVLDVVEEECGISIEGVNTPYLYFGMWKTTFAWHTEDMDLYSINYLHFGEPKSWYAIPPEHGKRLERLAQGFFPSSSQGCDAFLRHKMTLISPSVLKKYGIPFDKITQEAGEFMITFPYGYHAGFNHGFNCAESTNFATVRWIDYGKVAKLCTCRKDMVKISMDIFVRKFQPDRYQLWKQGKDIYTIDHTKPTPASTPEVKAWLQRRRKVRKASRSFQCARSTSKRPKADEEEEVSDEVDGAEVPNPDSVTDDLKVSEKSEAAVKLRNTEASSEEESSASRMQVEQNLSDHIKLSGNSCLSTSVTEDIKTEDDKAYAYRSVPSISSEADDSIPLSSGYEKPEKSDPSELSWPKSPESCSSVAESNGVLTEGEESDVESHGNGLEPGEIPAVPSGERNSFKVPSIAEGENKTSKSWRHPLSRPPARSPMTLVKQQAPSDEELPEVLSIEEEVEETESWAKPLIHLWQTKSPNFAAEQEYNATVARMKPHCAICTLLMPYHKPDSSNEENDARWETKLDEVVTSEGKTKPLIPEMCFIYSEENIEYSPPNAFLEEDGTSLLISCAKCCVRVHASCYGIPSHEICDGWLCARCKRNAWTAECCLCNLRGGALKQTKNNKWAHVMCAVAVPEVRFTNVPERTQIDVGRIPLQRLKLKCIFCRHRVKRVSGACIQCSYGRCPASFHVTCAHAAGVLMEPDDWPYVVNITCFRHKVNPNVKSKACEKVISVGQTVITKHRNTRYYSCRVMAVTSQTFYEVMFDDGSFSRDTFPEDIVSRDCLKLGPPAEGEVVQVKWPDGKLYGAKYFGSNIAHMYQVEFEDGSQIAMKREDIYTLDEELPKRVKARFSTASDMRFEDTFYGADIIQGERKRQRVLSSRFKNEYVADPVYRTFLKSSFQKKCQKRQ

[8] = Systemic clearance in CD-1 mouse at 5 mg/kg, iv; assay type: ADME, organism-based; details: in vivo
[9] = target: T3, Lysine-specific demethylase 4C; assay: Inhibition of full-length KDM4C (unknown origin) expressed in human KYSE-150 cells assessed as increase in H3K36me3 level after 24 hrs by HTRF assay
[10] = Oral bioavailability in CD-1 mouse at 10 mg/kg; assay type: ADME, organism-based; details: in vivo
[11] = Volume of distribution in CD-1 mouse at 5 mg/kg, iv; assay type: ADME, organism-based; details: in vivo
[12] = target: T3, Lysine-specific demethylase 4C; assay: Inhibition of KDM4C (unknown origin) using biotinylated H3K9me3 peptide and alpha-ketoglutarate as substrate pretreated for 1 hr followed by substrate addition measured after 20 mins in presence of 0.2 mg/ml BSA by LANCE TR-FRET assay
[13] = target: T4, Lysine-specific demethylase 4C (Homo sapiens) (UniProt Q9H3R0); assay: Inhibition of full-length KDM4C (unknown origin) expressed in human KYSE-150 cells assessed as increase in H3K36me3 level after 24 hrs by HTRF assay
T4 sequence (whole entry): T3 sequence (Q9H3R0 whole entry)

KYSE-150 cell line = assay: cells; details: Homo sapiens, KYSE-150, 168 h
Description: Antiproliferative activity against human KYSE-150 cells after 168 hrs by 5-bromo-2'-deoxyuridine thymidine incorporation assay

Homo sapiens [14] = species: Homo sapiens; assay: Inhibition of KDM5 in human KYSE-150 cells assessed as increase in H3K4me3 level at higher concentration after 24 hrs by UHPLC-MS/MS analysis; assay type: cell-based
Homo sapiens [15] = species: Homo sapiens; assay: Inhibition of KDM6 in human KYSE-150 cells assessed as increase in H3K27me3 level at higher concentration after 24 to 96 hrs by UHPLC-MS/MS analysis; assay type: cell-based
IMR-90 = assay: Cytotoxicity against human IMR90 cells; assay type: cell-based
[16] = Permeability of the compound by PAMPA; assay type: ADME; details: read-out: permeability
[17] = target: Lysine-specific histone demethylase 1A (Homo sapiens) (UniProt O60341); assay: Inhibition of KDM1 in human KYSE-150 cells assessed as increase in H3K4me2 level at higher concentration after 24 hrs by UHPLC-MS/MS analysis; assay type: cell-based

Lysine-specific demethylase 3B, sequence (Q7LBC6 whole entry): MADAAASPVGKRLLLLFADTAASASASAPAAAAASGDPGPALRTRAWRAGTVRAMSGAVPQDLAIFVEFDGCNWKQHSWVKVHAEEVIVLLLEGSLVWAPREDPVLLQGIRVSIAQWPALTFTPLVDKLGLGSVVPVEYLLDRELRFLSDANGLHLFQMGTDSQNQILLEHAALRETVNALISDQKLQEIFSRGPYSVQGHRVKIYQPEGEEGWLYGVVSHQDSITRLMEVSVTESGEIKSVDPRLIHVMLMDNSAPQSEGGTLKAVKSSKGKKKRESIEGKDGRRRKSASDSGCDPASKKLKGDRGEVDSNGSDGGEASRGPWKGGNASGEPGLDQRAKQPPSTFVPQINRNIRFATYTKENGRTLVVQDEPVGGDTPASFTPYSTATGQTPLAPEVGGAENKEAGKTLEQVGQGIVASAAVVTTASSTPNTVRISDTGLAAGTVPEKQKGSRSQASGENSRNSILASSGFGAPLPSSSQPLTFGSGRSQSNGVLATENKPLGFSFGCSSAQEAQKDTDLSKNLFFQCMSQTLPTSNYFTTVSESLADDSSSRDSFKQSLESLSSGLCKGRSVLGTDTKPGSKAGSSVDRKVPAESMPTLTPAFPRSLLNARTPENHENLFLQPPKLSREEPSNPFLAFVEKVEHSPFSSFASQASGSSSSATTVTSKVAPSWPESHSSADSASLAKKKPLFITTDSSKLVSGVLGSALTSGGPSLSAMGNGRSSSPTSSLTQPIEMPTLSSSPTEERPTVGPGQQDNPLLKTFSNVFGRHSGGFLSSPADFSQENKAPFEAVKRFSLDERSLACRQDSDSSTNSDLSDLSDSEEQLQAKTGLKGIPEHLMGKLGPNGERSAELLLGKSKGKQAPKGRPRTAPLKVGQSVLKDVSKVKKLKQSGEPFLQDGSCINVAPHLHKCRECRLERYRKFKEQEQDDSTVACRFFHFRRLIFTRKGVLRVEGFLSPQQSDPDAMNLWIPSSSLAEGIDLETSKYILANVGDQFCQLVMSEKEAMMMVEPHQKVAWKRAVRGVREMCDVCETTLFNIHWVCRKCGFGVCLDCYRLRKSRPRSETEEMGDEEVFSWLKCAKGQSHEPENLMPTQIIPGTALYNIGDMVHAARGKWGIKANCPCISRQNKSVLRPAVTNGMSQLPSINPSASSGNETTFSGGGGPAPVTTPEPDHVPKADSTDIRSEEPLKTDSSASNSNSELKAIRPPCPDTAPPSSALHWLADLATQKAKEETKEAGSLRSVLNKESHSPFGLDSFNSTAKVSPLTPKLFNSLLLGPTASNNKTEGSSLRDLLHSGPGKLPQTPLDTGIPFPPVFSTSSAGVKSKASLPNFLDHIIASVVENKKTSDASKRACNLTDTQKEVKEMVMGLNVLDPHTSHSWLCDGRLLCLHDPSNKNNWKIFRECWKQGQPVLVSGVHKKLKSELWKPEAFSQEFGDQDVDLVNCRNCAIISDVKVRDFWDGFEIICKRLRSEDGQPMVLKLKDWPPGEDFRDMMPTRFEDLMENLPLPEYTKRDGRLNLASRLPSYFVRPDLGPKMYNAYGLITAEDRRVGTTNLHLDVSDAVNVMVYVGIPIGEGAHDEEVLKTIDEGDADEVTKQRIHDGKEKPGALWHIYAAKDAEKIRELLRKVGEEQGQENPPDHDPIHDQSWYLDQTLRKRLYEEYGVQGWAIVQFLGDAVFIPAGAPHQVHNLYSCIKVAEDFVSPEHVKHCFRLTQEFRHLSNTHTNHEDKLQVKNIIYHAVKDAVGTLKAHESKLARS
Histone lysine demethylase PHF8, sequence (Q9UPP1 whole entry): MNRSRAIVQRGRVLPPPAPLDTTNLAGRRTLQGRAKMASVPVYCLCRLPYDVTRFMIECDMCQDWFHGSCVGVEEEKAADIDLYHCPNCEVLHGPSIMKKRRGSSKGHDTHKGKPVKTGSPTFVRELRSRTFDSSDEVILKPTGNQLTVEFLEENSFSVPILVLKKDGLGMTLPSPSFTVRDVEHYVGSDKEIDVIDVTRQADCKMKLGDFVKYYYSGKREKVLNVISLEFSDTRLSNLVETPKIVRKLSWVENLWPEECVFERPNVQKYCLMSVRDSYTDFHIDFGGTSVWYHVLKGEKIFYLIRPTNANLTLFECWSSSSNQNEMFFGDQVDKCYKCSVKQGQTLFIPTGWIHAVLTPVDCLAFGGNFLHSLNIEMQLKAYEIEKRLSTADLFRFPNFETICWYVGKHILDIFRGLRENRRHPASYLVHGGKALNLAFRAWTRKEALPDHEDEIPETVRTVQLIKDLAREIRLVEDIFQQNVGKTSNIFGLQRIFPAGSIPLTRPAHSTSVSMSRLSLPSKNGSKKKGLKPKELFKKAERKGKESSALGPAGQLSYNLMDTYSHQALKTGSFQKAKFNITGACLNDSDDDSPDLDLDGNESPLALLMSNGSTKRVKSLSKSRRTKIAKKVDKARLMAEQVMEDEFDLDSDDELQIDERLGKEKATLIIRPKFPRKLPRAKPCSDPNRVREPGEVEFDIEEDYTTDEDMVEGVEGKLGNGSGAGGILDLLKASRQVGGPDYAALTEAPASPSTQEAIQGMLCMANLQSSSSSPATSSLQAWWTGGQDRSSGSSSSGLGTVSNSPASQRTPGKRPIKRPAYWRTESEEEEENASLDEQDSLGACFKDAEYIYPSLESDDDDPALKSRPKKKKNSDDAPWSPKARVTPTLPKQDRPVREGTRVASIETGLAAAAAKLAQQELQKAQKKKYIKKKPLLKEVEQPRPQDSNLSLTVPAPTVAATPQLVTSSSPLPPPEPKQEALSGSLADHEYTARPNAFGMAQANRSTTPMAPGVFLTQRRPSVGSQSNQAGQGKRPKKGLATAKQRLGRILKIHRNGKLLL
Lysine-specific demethylase 6B, sequence (O15054 whole entry): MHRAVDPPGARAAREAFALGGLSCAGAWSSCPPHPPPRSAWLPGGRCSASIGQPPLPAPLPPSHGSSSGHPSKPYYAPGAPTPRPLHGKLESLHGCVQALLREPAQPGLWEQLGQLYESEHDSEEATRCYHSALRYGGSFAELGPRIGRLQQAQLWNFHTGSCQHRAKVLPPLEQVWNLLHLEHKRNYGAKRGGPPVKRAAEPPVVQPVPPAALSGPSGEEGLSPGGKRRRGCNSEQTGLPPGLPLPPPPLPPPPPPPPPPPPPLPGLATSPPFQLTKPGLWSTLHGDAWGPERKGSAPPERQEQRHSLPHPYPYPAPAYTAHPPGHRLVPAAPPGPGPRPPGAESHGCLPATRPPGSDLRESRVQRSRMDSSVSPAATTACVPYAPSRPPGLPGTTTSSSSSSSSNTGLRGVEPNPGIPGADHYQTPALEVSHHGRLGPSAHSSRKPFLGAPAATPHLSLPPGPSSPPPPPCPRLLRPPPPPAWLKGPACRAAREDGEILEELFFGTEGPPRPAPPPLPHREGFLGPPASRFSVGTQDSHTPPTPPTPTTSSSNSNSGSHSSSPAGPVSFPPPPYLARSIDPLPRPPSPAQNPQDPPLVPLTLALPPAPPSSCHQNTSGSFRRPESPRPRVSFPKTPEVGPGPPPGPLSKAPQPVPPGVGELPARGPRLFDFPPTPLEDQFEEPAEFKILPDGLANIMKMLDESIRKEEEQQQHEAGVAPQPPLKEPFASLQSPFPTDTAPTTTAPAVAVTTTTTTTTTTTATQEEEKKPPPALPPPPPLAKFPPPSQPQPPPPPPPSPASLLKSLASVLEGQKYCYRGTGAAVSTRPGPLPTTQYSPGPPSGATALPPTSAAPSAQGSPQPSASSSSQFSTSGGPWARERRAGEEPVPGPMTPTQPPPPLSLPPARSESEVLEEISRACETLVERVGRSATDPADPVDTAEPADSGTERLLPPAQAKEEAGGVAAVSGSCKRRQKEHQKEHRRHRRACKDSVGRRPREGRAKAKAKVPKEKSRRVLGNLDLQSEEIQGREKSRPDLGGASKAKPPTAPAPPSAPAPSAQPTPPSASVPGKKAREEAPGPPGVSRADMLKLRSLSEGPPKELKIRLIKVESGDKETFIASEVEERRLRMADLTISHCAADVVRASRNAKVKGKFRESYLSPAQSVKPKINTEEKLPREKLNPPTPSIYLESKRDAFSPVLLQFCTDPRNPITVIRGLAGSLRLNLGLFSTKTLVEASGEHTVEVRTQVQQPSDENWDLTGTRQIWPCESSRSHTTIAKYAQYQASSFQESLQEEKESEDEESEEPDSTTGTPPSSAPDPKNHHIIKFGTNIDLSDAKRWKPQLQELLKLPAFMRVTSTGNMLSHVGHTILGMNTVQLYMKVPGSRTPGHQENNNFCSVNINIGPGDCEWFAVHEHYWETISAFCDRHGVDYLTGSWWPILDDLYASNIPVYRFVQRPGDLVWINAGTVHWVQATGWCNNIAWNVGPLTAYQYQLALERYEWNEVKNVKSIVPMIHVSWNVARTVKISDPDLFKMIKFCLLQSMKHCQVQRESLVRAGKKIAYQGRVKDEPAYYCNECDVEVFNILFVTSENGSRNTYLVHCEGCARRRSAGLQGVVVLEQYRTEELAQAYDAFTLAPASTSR

Compound `CN(c1ccccc1)c1ccc2c(c1)CCC[C@H]2CNc1cnccc1C(=O)O` has an IC50 [1] greater than 4000 nM, an IC50 [2] greater than 4000 nM and an IC50 [3] greater than 4000 nM. The AUC [4] was 10400 ng·h/mL, the IC50 [5] was greater than 4000 nM and the IC50 [6] was greater than 4000 nM. It also gave an IC50 [7] of 9 nM, a clearance [8] of 6.9 mL/min/kg and an EC50 [9] of 1.3 nM. It also gave a bioavailability [10] of 30% and a Vd [11] of 0.675 L/kg.
For `O=C(O)c1ccncc1NC[C@H]1CCCc2ccccc21`, the IC50 [12] was greater than 2000 nM, the inhibition [13] was “inactive” and the EC50 (KYSE-150 cell line) was greater than 100000 nM.
For `O=C(O)c1ccncc1NC[C@@H]1CCCc2ccccc21`, the IC50 [12] was 8 nM and the EC50 (KYSE-150 cell line) was 4000 nM.
In the case of `COc1ccc2c(c1)CCC[C@H]2CNc1cnccc1C(=O)O`, the inhibition (Homo sapiens [14]) is reported as “Below limit of detection”, the inhibition (Homo sapiens [15]) is reported as “Active” and the IC50 [12] is reported as 6 nM. The EC50 (IMR-90) was greater than 30000 nM, the inhibition [13] was “Dose-dependent effect” and the EC50 [9] was 560 nM. The EC50 (KYSE-150 cell line) was 830 nM, the Papp [16] was 1.84 ×10⁻⁶ cm/s and the inhibition [17] was “Below limit of detection”.
With `O=C(O)c1ccncc1NC[C@@H]1CCCc2cc(Sc3ccccc3)ccc21` the IC50 [12] was 48 nM and the EC50 [9] was 19 nM.
Compound `O=C(O)c1ccncc1NCC1CCCc2ccccc21` (centres undefined) has an IC50 [12] of 12 nM and an EC50 (KYSE-150 cell line) of 6000 nM.
